Laboratory results: article PMC8229775, “β-Thujaplicin Enhances TRAIL-Induced Apoptosis via the Dual Effects of XIAP Inhibition and Degradation in NCI-H460 Human Lung Cancer Cells” (Medicines, 2021)

Target: T1, X-linked inhibitor of apoptosis protein (XIAP) (Homo sapiens, UniProt P98170)
T1 construct: GST-tagged XIAP-BIR3 domain
Experiment: fluorescence polarization displacement of 5-FAM Smac/Diablo peptide from recombinant BIR3
Format: binding

T1 sequence (P98170 241-356 limits assumed): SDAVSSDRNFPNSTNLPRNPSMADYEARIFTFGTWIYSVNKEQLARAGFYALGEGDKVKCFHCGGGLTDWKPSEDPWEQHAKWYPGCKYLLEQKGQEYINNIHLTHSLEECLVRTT

SMILES | IC50 [µM]
CCCCCCCCCCCC1=C(O)C(=O)C=C(O)C1=O [Embelin] | 3.1 ± 0.6
O=c1cccccc1O [Tropolone] | 83.1 ± 6.9
CC(C)c1cccc(=O)c(O)c1 [β-thujaplicin] | 58.5 ± 2.8
CC(C)c1ccc(O)c(=O)cc1 [γ-thujaplicin] | 56.2 ± 2.9
